Measurements reported in ChEMBL document CHEMBL4261633, “Butenolides from a marine-derived fungus Aspergillus terreus with antitumor activities against pancreatic ductal adenocarcinoma cells” (Bioorg Med Chem, 2018).
Calls of active or inactive are those of the source. The rule behind the calls is not given here.

Key:
PANC-1 [1] = assay: Induction of apoptosis in human PANC1 cells assessed as early apoptotic cells at 25 uM after 24 hrs by FITC-Annexin V/propidium iodide staining-based flow cytometric analysis (reference value: 0.5 to 3.2%); format: functional
HCC1806 = assay: Antiproliferative activity against human HCC1806 cells after 24 hrs by CCK8 assay; format: functional, cell-based; settings: HCC1806, 24 h
PANC-1 [2] = assay: Induction of apoptosis in human PANC1 cells assessed as necrotic cells at 5 uM after 24 hrs by FITC-Annexin V/propidium iodide staining-based flow cytometric analysis (reference value: 0.7 to 1.4%); format: functional
PANC-1 [3] = assay: Cell cycle arrest in human PANC1 cells assessed as accumulation at G1 phase at 10 uM after 24 hrs by RNAase/propidium iodide staining-based flow cytometric analysis (reference value: 67.93 to 75.87%); format: functional
PANC-1 [4] = assay: Induction of apoptosis in human PANC1 cells assessed as nuclear shrinkage at 25 uM after 24 hrs by Hoechst 33258 staining based fluorescence microscopic analysis; format: functional, cell-based
PANC-1 [5] = assay: Induction of apoptosis in human PANC1 cells assessed as necrotic cells at 25 uM after 24 hrs by FITC-Annexin V/propidium iodide staining-based flow cytometric analysis (reference value: 0.7 to 1.4%); format: functional
PANC-1 [6] = assay: Induction of apoptosis in human PANC1 cells assessed as early apoptotic cells at 5 uM after 24 hrs by FITC-Annexin V/propidium iodide staining-based flow cytometric analysis (reference value: 0.5 to 3.2%); format: functional
PANC-1 [7] = assay: Induction of apoptosis in human PANC1 cells assessed as viable cells at 10 uM after 24 hrs by FITC-Annexin V/propidium iodide staining-based flow cytometric analysis (reference value: 94.7 to 98.7%); format: functional; settings: PANC-1, 24 h, read-out: Activity
PANC-1 [8] = assay: Induction of apoptosis in human PANC1 cells assessed as nuclear fragmentation at 10 uM after 24 hrs by Hoechst 33258 staining based fluorescence microscopic analysis; format: functional, cell-based
PANC-1 [9] = assay: Induction of apoptosis in human PANC1 cells assessed as nuclear chromatin condensation at 10 uM after 24 hrs by Hoechst 33258 staining based fluorescence microscopic analysis; format: functional, cell-based
PANC-1 [10] = assay: Cell cycle arrest in human PANC1 cells assessed as accumulation at G2/M phase at 25 uM after 24 hrs by RNAase/propidium iodide staining-based flow cytometric analysis (reference value: 6.83 to 11.82%); format: functional
PANC-1 [11] = assay: Induction of apoptosis in human PANC1 cells assessed as late apoptotic cells at 10 uM after 24 hrs by FITC-Annexin V/propidium iodide staining-based flow cytometric analysis (reference value: 0.0 to 0.7%); format: functional
HepG2 = assay: Antiproliferative activity against human HepG2 cells after 24 hrs by CCK8 assay; format: functional, cell-based; settings: HepG2, 24 h
PANC-1 [12] = assay: Cell cycle arrest in human PANC1 cells assessed as accumulation at G2/M phase at 5 uM after 24 hrs by RNAase/propidium iodide staining-based flow cytometric analysis (reference value: 6.83 to 11.82%); format: functional
PANC-1 [13] = assay: Induction of apoptosis in human PANC1 cells assessed as late apoptotic cells at 15 uM after 24 hrs by FITC-Annexin V/propidium iodide staining-based flow cytometric analysis (reference value: 0.0 to 0.7%); format: functional
PANC-1 [14] = assay: Cell cycle arrest in human PANC1 cells assessed as accumulation at S phase at 15 uM after 24 hrs by RNAase/propidium iodide staining-based flow cytometric analysis (reference value: 11.66 to 19.02%); format: functional
PANC-1 [15] = assay: Induction of apoptosis in human PANC1 cells assessed as early apoptotic cells at 15 uM after 24 hrs by FITC-Annexin V/propidium iodide staining-based flow cytometric analysis (reference value: 0.5 to 3.2%); format: functional
PANC-1 [16] = assay: Induction of apoptosis in human PANC1 cells assessed as viable cells at 25 uM after 24 hrs by FITC-Annexin V/propidium iodide staining-based flow cytometric analysis (reference value: 94.7 to 98.7%); format: functional; settings: PANC-1, 24 h, read-out: Activity
PANC-1 [17] = assay: Cell cycle arrest in human PANC1 cells assessed as accumulation at S phase at 5 uM after 24 hrs by RNAase/propidium iodide staining-based flow cytometric analysis (reference value: 11.66 to 19.02%); format: functional
PANC-1 [18] = assay: Cell cycle arrest in human PANC1 cells assessed as accumulation at G2/M phase at 15 uM after 24 hrs by RNAase/propidium iodide staining-based flow cytometric analysis (reference value: 6.83 to 11.82%); format: functional
PANC-1 [19] = assay: Induction of apoptosis in human PANC1 cells assessed as viable cells at 15 uM after 24 hrs by FITC-Annexin V/propidium iodide staining-based flow cytometric analysis (reference value: 94.7 to 98.7%); format: functional; settings: PANC-1, 24 h, read-out: Activity
PANC-1 [20] = assay: Cell cycle arrest in human PANC1 cells assessed as accumulation at G1 phase at 15 uM after 24 hrs by RNAase/propidium iodide staining-based flow cytometric analysis (reference value: 67.93 to 75.87%); format: functional
PANC-1 [21] = assay: Induction of apoptosis in human PANC1 cells assessed as viable cells at 5 uM after 24 hrs by FITC-Annexin V/propidium iodide staining-based flow cytometric analysis (reference value: 94.7 to 98.7%); format: functional; settings: PANC-1, 24 h, read-out: Activity
PANC-1 [22] = assay: Induction of apoptosis in human PANC1 cells assessed as necrotic cells at 15 uM after 24 hrs by FITC-Annexin V/propidium iodide staining-based flow cytometric analysis (reference value: 0.7 to 1.4%); format: functional
PANC-1 [23] = assay: Induction of apoptosis in human PANC1 cells assessed as nuclear shrinkage at 10 uM after 24 hrs by Hoechst 33258 staining based fluorescence microscopic analysis; format: functional, cell-based
PANC-1 [24] = assay: Cell cycle arrest in human PANC1 cells assessed as accumulation at S phase at 10 uM after 24 hrs by RNAase/propidium iodide staining-based flow cytometric analysis (reference value: 11.66 to 19.02%); format: functional
PANC-1 [25] = assay: Induction of apoptosis in human PANC1 cells assessed as early apoptotic cells at 10 uM after 24 hrs by FITC-Annexin V/propidium iodide staining-based flow cytometric analysis (reference value: 0.5 to 3.2%); format: functional
BEAS-2B = assay: Antiproliferative activity against human BEAS2B cells after 24 hrs by CCK8 assay; format: functional, cell-based
PANC-1 [26] = assay: Cell cycle arrest in human PANC1 cells assessed as accumulation at S phase at 25 uM after 24 hrs by RNAase/propidium iodide staining-based flow cytometric analysis (reference value: 11.66 to 19.02%); format: functional
PANC-1 [27] = assay: Induction of apoptosis in human PANC1 cells assessed as necrotic cells at 10 uM after 24 hrs by FITC-Annexin V/propidium iodide staining-based flow cytometric analysis (reference value: 0.7 to 1.4%); format: functional
HT-29 = assay: Antiproliferative activity against human HT-29 cells after 24 hrs by CCK8 assay; format: functional, cell-based; settings: HT-29, 24 h
PANC-1 [28] = assay: Cell cycle arrest in human PANC1 cells assessed as accumulation at G1 phase at 5 uM after 24 hrs by RNAase/propidium iodide staining-based flow cytometric analysis (reference value: 67.93 to 75.87%); format: functional
PANC-1 [29] = assay: Induction of apoptosis in human PANC1 cells assessed as nuclear chromatin condensation at 25 uM after 24 hrs by Hoechst 33258 staining based fluorescence microscopic analysis; format: functional, cell-based
PANC-1 [30] = assay: Induction of apoptosis in human PANC1 cells assessed as nuclear fragmentation at 25 uM after 24 hrs by Hoechst 33258 staining based fluorescence microscopic analysis; format: functional, cell-based
PANC-1 [31] = assay: Induction of apoptosis in human PANC1 cells assessed as late apoptotic cells at 5 uM after 24 hrs by FITC-Annexin V/propidium iodide staining-based flow cytometric analysis (reference value: 0.0 to 0.7%); format: functional
PANC-1 [32] = assay: Antiproliferative activity against human PANC1 cells after 24 hrs by CCK8 assay; format: functional, cell-based; settings: PANC-1, 24 h
PANC-1 [33] = assay: Induction of apoptosis in human PANC1 cells assessed as late apoptotic cells at 25 uM after 24 hrs by FITC-Annexin V/propidium iodide staining-based flow cytometric analysis (reference value: 0.0 to 0.7%); format: functional
PANC-1 [34] = assay: Cell cycle arrest in human PANC1 cells assessed as accumulation at G1 phase at 25 uM after 24 hrs by RNAase/propidium iodide staining-based flow cytometric analysis (reference value: 67.93 to 75.87%); format: functional
PANC-1 [35] = assay: Cell cycle arrest in human PANC1 cells assessed as accumulation at G2/M phase at 10 uM after 24 hrs by RNAase/propidium iodide staining-based flow cytometric analysis (reference value: 6.83 to 11.82%); format: functional
PANC-1 [36] = assay: Induction of apoptosis in human PANC1 cells after 24 hrs by FITC-Annexin V/propidium iodide staining-based flow cytometric analysis; format: functional, cell-based

What does the source list for COC(=O)[C@]1(Cc2ccc(O)c(CC=C(C)C)c2)OC(=O)C(O)=C1c1ccccc1?
Activity (PANC-1 [1]): 21.1%; IC50 (HCC1806): 18.7 µM; Activity (PANC-1 [2]): 1.3%; Activity (PANC-1 [3]): 56.57%; Activity (PANC-1 [4]): Active; Activity (PANC-1 [5]): 2.3%; Activity (PANC-1 [6]): 6.8%; viability at 10 µM (PANC-1 [7]): 83.9%; Activity (PANC-1 [8]): Active; Activity (PANC-1 [9]): Active; Activity (PANC-1 [10]): 10.63%; Activity (PANC-1 [11]): 1.4%; IC50 (HepG2): 12.9 µM; Activity (PANC-1 [12]): 7.77%; Activity (PANC-1 [13]): 1%; Activity (PANC-1 [14]): 32.92%; Activity (PANC-1 [15]): 14.9%; viability at 25 µM (PANC-1 [16]): 73.6%; Activity (PANC-1 [17]): 10.92%; Activity (PANC-1 [18]): 7.7%; viability at 15 µM (PANC-1 [19]): 83.2%; Activity (PANC-1 [20]): 52.41%; viability at 5 µM (PANC-1 [21]): 91.1%; Activity (PANC-1 [22]): 0.9%; Activity (PANC-1 [23]): Active; Activity (PANC-1 [24]): 31.28%; Activity (PANC-1 [25]): 13.6%; IC50 (BEAS-2B): > 20 µM; Activity (PANC-1 [26]): 42.63%; Activity (PANC-1 [27]): 1.2%; IC50 (HT-29): > 20 µM; Activity (PANC-1 [28]): 72.84%; Activity (PANC-1 [29]): Active; Activity (PANC-1 [30]): Active; Activity (PANC-1 [31]): 0.8%; IC50 (PANC-1 [32]): 9.4 µM; Activity (PANC-1 [33]): 3%; Activity (PANC-1 [34]): 43.95%; Activity (PANC-1 [35]): 8.14%; Activity (PANC-1 [36]): Dose-dependent effect
